In brackets after ≈: the same amount, converted by molar mass. Like-named read-outs stand apart in the source and are kept apart here.
What was measured:
[1] = system: Huh7 (human hepatoma cells); settings: cited from earlier work
P. falciparum 3D7 [2] = system: P. falciparum 3D7; design: method as in earlier work; settings: Novartis HTS 2008; ref (21); cited from earlier work
P. falciparum W2 = system: P. falciparum W2; design: method as in earlier work; settings: Novartis HTS 2008; ref (21); cited from earlier work
P. falciparum Dd2 = assay: Method III growth inhibition assay (HRP2-ELISA, 3 days), Dd2; assay type: cell-based, Plasmodium falciparum; settings: Plasmodium falciparum, DD2, chloroquine-resistant Dd2, method III
[3] = system: blood-stage P. falciparum 3D7; settings: Plasmodium falciparum
[4] = system: Mycobacterium tuberculosis H37Rv strain; design: method as in PMID 36320685; settings: cited from earlier work
M. tuberculosis DXPS = target: M. tuberculosis DXPS; design: method as in PMID 36320685; settings: Morrison inhibition constant, slow-, tight-binding; read-out: Ki* MtDXPS; cited from earlier work
P. falciparum NF54 = assay: Method II growth-inhibition assay (PicoGreen, 3 days), NF54; assay type: cell-based; settings: Plasmodium falciparum; chloroquine-sensitive NF54, method II
Description: (§1) Fidock (Columbia University).

Hep G2 cells = assay: Hep G2 viability assay (counter screen); assay type: cell-based, human; settings: Homo sapiens, HepG2, 48 h, cytotoxicity, 48 h
Method: HepG2 cells (2 × 10^5 cells per well) were seeded in 24-well, flat-bottomed plates. Culturing of cells, incubations, and OD measurements were performed as described previously with small modifications.[58] 24 h after seeding the cells, the incubation was started by the addition of compounds in a final DMSO concentration of 1%. The metabolic activity of the living cell mass was determined after 48 h. At least three independent measurements were performed for each compound. The IC50 values were determined during logarithmic growth using GraphPad Prism software. All experiments were performed at least in triplicate, and data reported represent the mean ± SD.

P. falciparum 3D7 [5] = assay: Method I growth-inhibition assay (SYBR Green I, 96 h); assay type: cell-based; settings: Plasmodium falciparum
Description: Nonlinear regression as implemented in GraphPad Prism 7.00 (log(inhibitor) vs response – variable slope (four parameters)) was used to fit the measured data to interpolate the IC50 value from the curve. No specific model was applied. Data was preprocessed by normalizing according to the following formula: […]
(§2) eq 1: Fluorescence data normalization [drawing 2] where y is the fluorescence signal in each well, yminimum is the background fluorescence, and ymaximum is the highest measured fluorescence signal in the untreated wells. Drug concentrations (in μM) were transformed to the log(10)of the values. Means of each independent experiment were plotted as individual values, and the SD of the mean from the means shown as error bars. […] In case of transgenic cell lines, the built-in comparison Akaike’s information criteria (AICc) method was applied to the Log IC50s of the different cell lines. The test calculates a percentage probability of the simpler model “Log IC50 is the same for datasets” being correct. The test for homoscedasticity was performed to confirm if no weighting of values was appropriate.

[6] = Metabolic stability in human liver S9 fraction; assay type: in vitro ADME; settings: 1 μM compound; for half-life at 1 μM: human, pooled liver S9 fraction
Method: For the evaluation of combined phase I and phase II metabolic stability, the compound (1 μM) was incubated with 1 mg/mL pooled liver S9 fraction (XenoTech), 2 mM NADPH, 1 mM UDPGA, 10 mM MgCl2, 5 mM GSH, and 0.1 mM PAPS at 37 °C for 0, 5, 15, 30, and 60 min. The metabolic stabilities of testosterone (1 μM), verapamil (1 μM), and propranolol (1 μM) were determined in parallel to confirm the enzymatic activity of the S9 fraction. The incubation was stopped by precipitation of S9 enzymes with two volumes of cold acetonitrile containing internal standard (150 nM diphenhydramine). Samples were stored on ice for 10 min, and precipitated protein was removed by centrifugation (15 min, 4 °C, 4000 rpm). The concentration of the remaining test compound at the different time points was analyzed by LC-MS/MS (TSQ Quantum Access MAX, Thermo Fisher, Dreieich, Germany) and used to determine half-life (t1/2).

P. falciparum 3D7-DXPS+ = assay: Growth inhibition of PfDXPS overexpressing parasites (3D7-DXPS+); assay type: cell-based; settings: Plasmodium falciparum, 3D7, read-out: PfDXPS IC50
Description: (§3) The open reading frame (ORF) encoding 1-deoxy-D-xylulose-5-phosphate synthase (PfDXPS; PF3D7_1337200) was amplified from genomic DNA isolated from unsynchronized P. falciparum 3D7 cultures using the Platinum PCR SuperMix High Fidelity (Invitrogen). Forward and reverse primers contained restriction sites for KpnI and AvrII in sense and antisense orientation, respectively (oligonucleotides pfDXPS-Kpn1-S: […]; pfDXPSmyc-Avr2-AS: […] ). PCR products and the transfection vector pARL1a-hDHFR PfARG-GFP were digested with KpnI and AvrII, purified (Gel extraction Kit and PCR purification kit; Qiagen), and cloned into the transfection vector yielding the construct for overexpression pARL-DXS-strep. XL 10-Gold E. coli ultracompetent cells (Agilent Technologies) were transformed with the generated construct to amplify the plasmid and colonies checked using restriction analysis and sequencing of the plasmid. Bacterial clones carrying the overexpression construct and the empty pARL1a vector (MOCK plasmid) were amplified in overnight cultures, isolated (Plasmid Maxi Kit; QIAGEN), and subsequently used to transfect P. falciparum 3D7 ring-stage parasites, as already described.[59] Briefly, 120 μg of plasmid DNA was centrifuged and air-dried, and the pellet was resuspended in TE buffer and cytomix reagent and mixed with the P. falciparum culture. Parasites were transfected using electroporation and selected with WR 99210. The generation and characterization of the PfTPK overexpression cell line has been reported before.[60]
(§4) P. falciparum cultures were treated as described in method I. For target specification toward PfTPK and PfDXPS, compounds were tested in comparison against overexpressing cell lines and the respective MOCK line containing only the transfected vector backbone. Parasite viability/proliferation was determined.

P. falciparum 3D7 [7] = assay: Method III growth inhibition assay (HRP2-ELISA, 3 days), 3D7; assay type: cell-based, Plasmodium falciparum
P. falciparum 3D7-TPK+ = assay: Growth inhibition of PfTPK overexpressing parasites (3D7-TPK+); assay type: cell-based; settings: Plasmodium falciparum, 3D7, read-out: PfTPK IC50
Method: as §4, with “determined. Analysis of the IC50 values and interpretation of the curves was performed, as described in Section 4.1.2.44.” for “determined.”
as §2

P. falciparum 3D7 [8] = assay: Method II growth-inhibition assay (PicoGreen, 3 days), 3D7; assay type: cell-based; settings: Plasmodium falciparum, 3D7, method II
Description: as §1

[9] = system: P. falciparum 3D7 MOCK cell line; assay: Growth inhibition of MOCK cell line (vector backbone only); assay type: cell-based; settings: Plasmodium falciparum, 95% CI in brackets
Description: as §3, §4

[10] = Kinetic solubility determination; assay type: physicochemical; settings: PBS with 2% DMSO, aqueous buffer, kinetic from dmso stock, PBS buffer and 2% DMSO; read-out: Max. solubility
Method: The desired compounds were sequentially diluted in DMSO in a 96-well plate. 3 μL of each well was transferred into another 96-well plate and mixed with 147 μL of PBS. Plates were shaken for 5 min at 600 rpm at room temperature (r.t.), and the absorbance at 620 nm was measured. Absorbance values were normalized by blank subtraction and plotted using GraphPad Prism 8.4.2 (GraphPad Software, San Diego, California, USA). Solubility (S) was determined based on the First X value of AUC function using a threshold of 0.005.

[11] = 3D7, method III (HRP2 assay), drc package of R, read-out: IC50 P. falciparum 3D7 (method III)
[12] = Plasmodium falciparum, 3D7, 3D7, method III (HRP2 assay), drc package of R, read-out: IC50 P. falciparum 3D7 (method III)
[13] = Plasmodium falciparum, 3D7, 3D7, method III, nonlinear regression as in Figure 2, 95% CI in brackets, read-out: IC50 C
[14] = 95% CI in brackets, read-out: IC50 B
[15] = 3D7, read-out: MOCK IC50, MOCK compared with 3D7-DXPS+
[16] = 3D7, read-out: MOCK IC50, MOCK compared with 3D7-TPK+, single measurement

**Q.** With `COC(C(=NO)c1ccc(Cl)cc1)c1ccccc1` (centres unmarked) [CHEMBL581471] as the molecule, how does the Huh7 inhibition [1] read?
**A.** > 10 µM

**Q.** And the EC50 (P. falciparum 3D7 [2])?
**A.** > 0.912 µM

**Q.** What about the EC50 (P. falciparum W2) of the same molecule?
**A.** > 1.61 µM

**Q.** Which results are given for `OCc1cn(Cc2ccc(Cl)c(Cl)c2)c2ccccc12` [compound 3]?
**A.** IC50 (P. falciparum Dd2): 13 ± 9 µM; IC50 [3]: 8 to 21 µM; MIC [4]: 10 µM (≈ 3.06 µg/mL); Ki (M. tuberculosis DXPS): 1.29 ± 0.2 µM; IC50 (P. falciparum NF54): 15 ± 2 µM; IC50 (Hep G2 cells): 0.8 ± 0.2 µM; IC50 (P. falciparum 3D7 [5]; 3D7, read-out: IC50 3D7-I): 25 ± 3 µM; IC50 (P. falciparum 3D7 [5]; 3D7, read-out: IC50 A [μM]): 21.4 µM; half-life at 1 μM [6]: 10 ± 0.4 min; IC50 (P. falciparum 3D7-DXPS+): 17.9 µM; IC50 (P. falciparum 3D7 [7]; [11]): 24 ± 6 µM; IC50 (P. falciparum 3D7 [7]; [12]): 23.6 ± 6.4 µM; IC50 (P. falciparum 3D7 [7]; [13]): 7.9 µM; IC50 (P. falciparum 3D7-TPK+): 21.1 µM; IC50 (P. falciparum 3D7 [8]; [14]): 17.1 µM; IC50 (P. falciparum 3D7 [8]; read-out: IC50 3D7-II): 17 ± 2 µM; IC50 [9, 15]: 17.9 µM; IC50 [9, 16]: 23.8 µM

**Q.** Which IC50 (P. falciparum Dd2) does the source give for `ON=C(Cc1ccc(Cl)cc1)c1ccc(O)cc1O` [compound 2] here?
**A.** 89 ± 31 µM

**Q.** And the IC50 [3]?
**A.** 44 to 74 µM

**Q.** What about the MIC [4] of the same molecule?
**A.** 10 µM (≈ 2.78 µg/mL)

**Q.** And the Ki (M. tuberculosis DXPS)?
**A.** 0.27 ± 0.02 µM

**Q.** And the IC50 (P. falciparum NF54)?
**A.** 41 ± 10 µM

**Q.** What about the IC50 (Hep G2 cells) of the same molecule?
**A.** > 50 µM

**Q.** And the IC50 (P. falciparum 3D7 [5]; 3D7, read-out: IC50 3D7-I)?
**A.** 81 ± 3 µM

**Q.** And the IC50 (P. falciparum 3D7 [5]; 3D7, read-out: IC50 A [μM])?
**A.** 74.2 µM

**Q.** What about the t1/2 [6] of the same molecule?
**A.** 29 ± 0.7 min

**Q.** What about the half-life at 1 μM [6] of the same molecule?
**A.** 28 min

**Q.** And the IC50 (P. falciparum 3D7-DXPS+)?
**A.** 110 µM

**Q.** And the IC50 (P. falciparum 3D7 [7]; [11])?
**A.** 94 ± 8 µM

**Q.** What about the IC50 (P. falciparum 3D7 [7]; [12]) of the same molecule?
**A.** 93.8 ± 8 µM

**Q.** What about the IC50 (P. falciparum 3D7 [7]; [13]) of the same molecule?
**A.** ~46 µM

**Q.** And the IC50 (P. falciparum 3D7-TPK+)?
**A.** 90.4 µM

**Q.** And the solubility at 5 min [10]?
**A.** 114 ± 6.7 µM (≈ 31.7 µg/mL)

**Q.** And the IC50 (P. falciparum 3D7 [8]; [14])?
**A.** 43.8 µM

**Q.** What about the IC50 (P. falciparum 3D7 [8]; read-out: IC50 3D7-II) of the same molecule?
**A.** 42 ± 4 µM

**Q.** And the IC50 [9, 15]?
**A.** 110 µM

**Q.** What about the IC50 [9, 16] of the same molecule?
**A.** 90.4 µM
